From patent publication US10662187B2, “Bruton's tyrosine kinase inhibitors” (Zibo Biopolar Changsheng Pharmaceutical Co. Ltd., priority 2016, dated 2020)
pIC50: −log10 of the molar value.

Molecular target: BTK (Homo sapiens (Human), UniProt Q06187)
Experiment: Btk kinase assay (HTRF)
Format: biochemical
Details: [ATP]=80 μM, BTK=3.4 nM; read-out: BTK Inhibition
Procedure: Btk Kinase Assay and Other Kinases Assay Btk kinase activity was determined using a homogenous time resolved fluorescence (HTRF) methodology. Measurements were performed in a reaction volume of 15 μL using 384-well assay plates. Kinase enzyme, inhibitor, ATP and 1 μM peptide substrate were incubated in a reaction buffer compose of Hepes 50 mM (pH7.0), NaN3 0.02%, BSA 0.01%, Orthocanadate 0.1 mM. […] For each compound, enzyme activity as measured at various concentrations of compound, Negative control reactions were performed in the absence of inhibitor in two replicates and eight no enzyme controls were used to determine baseline fluorescence levels.

Sequence of BTK (Q06187 whole entry, species assumed): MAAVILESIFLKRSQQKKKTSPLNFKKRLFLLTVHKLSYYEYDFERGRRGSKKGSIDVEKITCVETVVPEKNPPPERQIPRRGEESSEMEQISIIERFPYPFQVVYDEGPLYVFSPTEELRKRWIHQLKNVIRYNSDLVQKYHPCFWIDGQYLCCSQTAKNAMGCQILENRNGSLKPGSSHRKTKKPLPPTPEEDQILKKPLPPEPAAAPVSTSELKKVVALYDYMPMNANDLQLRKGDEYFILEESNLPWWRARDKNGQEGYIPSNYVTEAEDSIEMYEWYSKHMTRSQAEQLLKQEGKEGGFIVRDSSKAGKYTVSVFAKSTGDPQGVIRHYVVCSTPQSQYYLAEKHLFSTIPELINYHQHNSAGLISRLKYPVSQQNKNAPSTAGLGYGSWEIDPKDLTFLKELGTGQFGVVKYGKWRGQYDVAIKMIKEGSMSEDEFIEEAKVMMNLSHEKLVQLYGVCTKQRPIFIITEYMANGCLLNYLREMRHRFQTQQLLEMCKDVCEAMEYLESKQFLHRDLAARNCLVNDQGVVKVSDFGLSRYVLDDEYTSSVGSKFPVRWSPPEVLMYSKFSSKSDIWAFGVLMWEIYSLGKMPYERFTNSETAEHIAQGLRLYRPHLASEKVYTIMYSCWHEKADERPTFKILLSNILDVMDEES

Row | Structure (SMILES) | pIC50
1 | C=CC(=O)N1CC[C@@H](n2nc(-c3ccc(Oc4ccccc4)cc3)c3c(N)cccc32)C1 [Compound 54, (R)-1-(3-(4-amino-3-(4-phenoxyphenyl)-1H-indazol-1-yl)pyrrolidin-1-yl)prop-2-en-1-one] | 7.00 to 8.00
2 | C=CC(=O)N1CC[C@@H](n2nc(-c3ccc(Oc4cccc(OC)c4C)cc3)c3cnccc32)C1 [Compound 59, (R)-1-(3-(3-(4-(3-methoxy-2-methylphenoxy)phenyl)-1H-pyrazolo[4,3-c]pyridin-1-yl)pyrrolidin-1-yl)prop-2-en-1-one] | 7.00 to 8.00
3 | C=CC(=O)N1CC[C@@H](n2nc(-c3ccc(Oc4cccc(OC)c4F)cc3)c3cncc(C(F)F)c32)C1 [Compound 67, (R)-1-(3-(7-(difluoromethyl)-3-(4-(2-fluoro-3-melhoxyphenoxy)phenyl)-1H-pyrazolo[4,3-c]pyridin-1-yl)pyrrolidin-1-yl)prop-2-en-1-one] | > 8.00
4 | C=CC(=O)N1CC[C@@H](n2nc(-c3ccc(Oc4cccc(OC)c4Cl)cc3)c3cncc(F)c32)C1 [Compound 68, (R)-1-(3-(3-(4-(2-chloro-3-methoxyphenoxy)phenyl)-7-fluoro-1H-pyrazolo [4,3-c]pyridin-1-yl)pyrrolidin-1-yl)prop-2-en-1-one] | > 8.00
5 | C=CC(=O)N1CCC[C@@H](n2nc(-c3ccc(Oc4cccc(OC)c4F)cc3)c3cncc(F)c32)C1 [Compound 70, (R)-1-(3-(7-fluoro-3-(4-(2-fluoro-3-methoxyphenoxy)phenyl)-1H-pyrazolo[4,3-c]pyridin-1-yl)piperidin-1-yl)prop-2-en-1-one] | > 8.00
6 | C=CC(=O)N1CCC[C@@H](n2nc(-c3ccc(Oc4cccc(OC)c4F)cc3)c3cncc(C(F)F)c32)C1 [Compound 72, (R)-1-(3-(7-(difluoromethyl)-3-(4-(2-fluoro-3-methoxyphenoxy)phenyl)-1H-pyrazolo[4,3-c]pyridin-1-yl)piperidin-1-yl)prop-2-en-1-one] | 7.00 to 8.00
7 | COc1cccc(Oc2ccc(-c3nn([C@@H]4CCCN(C(=O)C5CC6(C5)CN(S(=O)(=O)c5ccc(C)cc5)C6)C4)c4c(OC)cncc34)cc2)c1F [Compound 74, (R)-(3-(3-(4-(2-fluoro-3-methoxyphenoxy)phenyl)-7-methoxy-1H-pyrazolo [4,3-c]pyridin-1-yl)piperidin-1-yl)(2-tosyl-2-azaspiro[3.3]heptan-6-yl)methanone] | 6.00 to 7.00
8 | C=CC(=O)N1CCC[C@@H](n2nc(-c3ccc(Oc4cccc(OC)c4F)cc3)c3cncc(OCCCC)c32)C1 [Compound 76, (R)-1-(3-(7-butoxy-3-(4-(2-fluoro-3-methoxyphenoxy)phenyl)-1H-pyrazolo[4,3-c]pyridin-1-yl)piperidin-1-yl)prop-2-en-1-one] | > 8.00
9 | C=CC(=O)N1CCC[C@@H](n2nc(-c3ccc(Oc4cccc(OC)c4F)cc3)c3cncc(O)c32)C1 [Compound 82, (R)-1-(3-(3-(4-(2-fluoro-3-methoxyphenoxy)phenyl)-7-hydroxy-1H-pyrazolo[4,3-c]pyridin-1-yl)piperidin-1-yl)prop-2-en-1-one] | > 8.00
10 | C=CC(=O)N1CCC[C@@H](n2nc(-c3ccc(Oc4cccc(OC)c4F)cc3)c3cncc(OCCN)c32)C1 [Compound 87, (R)-1-(3-(7-(2-aminoethoxy)-3-(4-(2-fluoro-3-methoxyphenoxy)phenyl)-1H-pyrazolo[4,3-c]pyridin-1-yl)piperidin-1-yl)prop-2-en-1-one] | 7.00 to 8.00
11 | C=CC(=O)N1CCC[C@@H](n2nc(-c3ccc(Oc4cccc(OC)c4OCCC)cc3)c3cncc(OCCC)c32)C1 [Compound 88, (R)-1-(3-(3-(4-(3-methoxy-2-propoxyphenoxy)phenyl)-7-propoxy-1H-pyrazolo[4,3-c]pyridin-1-yl)piperidin-1-yl)prop-2-en-1-one] | 7.00 to 8.00
12 | CCC(=O)N1CCC[C@@H](n2nc(-c3ccc(Oc4cccc(OC)c4F)cc3)c3cncc(OC)c32)C1 [Compound 89, (R)-1-(3-(3-(4-(2-fluoro-3-methoxyphenoxy)phenyl)-7-methoxy-1H-pyrazolo[4,3-c]pyridin-1-yl)piperidin-1-yl)propan-1-one] | 6.00 to 7.00

Other lines, results leading:

Row | pIC50 | Structure (SMILES)
13 | 7.00 to 8.00 | C=CC(=O)N1CCC[C@@H](n2nc(-c3ccc(Oc4cccc(C)c4F)cc3)c3cnccc32)C1 [Compound 48, (R)-1-(3-(3-(4-(2-fluoro-3-methylphenoxy)phenyl)-1H-pyrazolo[4,3-c]pyridin-1-yl)piperidin-1-yl)prop-2-en-1-one]
14 | 7.00 to 8.00 | C=CC(=O)N1CC[C@@H](n2nc(-c3ccc(Oc4cccc(F)c4OC)cc3)c3cnccc32)C1 [Compound 49, (R)-1-(3-(3-(4-(3-fluoro-2-methoxyphenoxy)phenyl)-1H-pyrazolo[4,3-c]pyridin-1-yl)pyrrolidin-1-yl)prop-2-en-1-one]
15 | 7.00 to 8.00 | C=CC(=O)N1CCC[C@@H](n2nc(-c3ccc(Oc4cccc(F)c4OC)cc3)c3cnccc32)C1 [Compound 50, (R)-1-(3-(3-(4-(3-fluoro-2-methoxyphenoxy)phenyl)-1H-pyrazolo[4,3-c]pyridin-1-yl)piperidin-1-yl)prop-2-en-1-one]
16 | 7.00 to 8.00 | C=CC(=O)N1CCC[C@@H](n2nc(-c3ccc(Oc4ccccc4)c(F)c3)c3cnccc32)C1 [Compound 51, (R)-1-(3-(3-(3-fluoro-4-phenoxyphenyl)-1H-pyrazolo[4,3-c]pyridin-1-yl)piperidin-1-yl)prop-2-en-1-one]
17 | 7.00 to 8.00 | C=CC(=O)N1CC(n2nc(-c3ccc(Oc4ccccc4)cc3)c3cnccc32)C1 [Compound 52, 1-(3-(3-(4-phenoxyphenyl)-1H-pyrazolo[4,3-c]pyridin-1-yl)azetidin-1-yl)prop-2-en-1-one]
18 | 7.00 to 8.00 | C=CC(=O)N1CCCC(Cn2nc(-c3ccc(Oc4ccccc4)cc3)c3cnccc32)C1 (stereo not drawn) [Compound 53, 1-(3-((3-(4-phenoxyphenyl)-1H-pyrazolo[4,3-c]pyridin-1-yl)methyl)piperidin-1-yl)prop-2-en-1-one]
19 | 7.00 to 8.00 | C=CC(=O)N1CCC[C@@H](n2nc(-c3ccc(Oc4ccccc4)cc3)c3c(N)cccc32)C1 [Compound 55, (R)-1-(3-(4-amino-3-(4-phenoxyphenyl)-1H-indazol-1-yl)piperidin-1-yl)prop-2-en-1-one]
20 | 7.00 to 8.00 | C=CC(=O)N1CCC[C@@H](n2nc(-c3ccc(Oc4cccc(Cl)c4C)cc3)c3cnccc32)C1 [Compound 56, (R)-1-(3-(3-(4-(3-chloro-2-methylphenoxy)phenyl)-1H-pyrazolo[4,3-c]pyridin-1-yl)piperidin-1-yl)prop-2-en-1-one]
21 | 7.00 to 8.00 | C=CC(=O)N1CCC[C@@H](n2nc(-c3ccc(Oc4cccc(OC)c4C)cc3)c3cnccc32)C1 [Compound 57, (R)-1-(3-(3-(4-(3-methoxy-2-methylphenoxy)phenyl)-1H-pyrazolo[4,3-c]pyridin-1-yl)piperidin-1-yl)prop-2-en-1-one]
22 | 7.00 to 8.00 | C=CC(=O)N1CC[C@@H](n2nc(-c3ccc(Oc4cccc(Cl)c4C)cc3)c3cnccc32)C1 [Compound 60, (R)-1-(3-(3-(4-(3-chloro-2-methylphenoxy)phenyl)-1H-pyrazolo[4,3-c]pyridin-1-yl)pyrrolidin-1-yl)prop-2-en-1-one]
23 | 7.00 to 8.00 | C=CC(=O)N1CCC[C@@H](n2nc(-c3ccc(Oc4cccc(OC)c4)cc3)c3cnccc32)C1 [Compound 65, (R)-1-(3-(3-(4-(3-methoxyphenoxy)phenyl)-1H-pyrazolo[4,3-c]pyridin-1-yl)piperidin-1-yl)prop-2-en-1-one]
24 | > 8.00 | C=CC(=O)N1CC[C@@H](n2nc(-c3ccc(Oc4ccccc4)cc3)c3cncc(F)c32)C1 [Compound 66]
